Structures can show the parent of a compound that is named as a salt. Where two headings read alike, the source gives them in different places.
How the values were obtained:
α2-adrenoreceptors = test: α2-adrenoreceptor binding in rat cortical tissue; conditions: initially, without preincubation
Protocol: (§1) The binding values of the α2-adrenoreceptors for the two enantiomers were evaluated using rat cortical tissue. In addition, the biological activity was evaluated by the inhibition of the hypothermia induced by guanabenz in mice.

[1] = tested on: hypothermia induced by guanabenz; test: Inhibition of the hypothermia induced by guanabenz; type: in vivo, mice; conditions: initially, without preincubation
Protocol: as §1

[2] = Pharmacokinetics of the enantiomers of idazoxan in healthy male subjects; conditions: for AUC0-∞ of R(−) idazoxan / AUC0-∞ of S(+) idazoxan / CLtot/F of S(+) idazoxan / Cmax of R(−) idazoxan / Cmax of S(+) idazoxan / Tmax of R(−) idazoxan / Tmax of S(+) idazoxan / t1/2 of R(−) idazoxan / t1/2 of S(+) idazoxan / CLtot/F of R(−) idazoxan: single administration of the racemate (20 mg) or of the enantiomer alone (10 mg)
Protocol: Young healthy male subjects were allocated at random to receive a single dose of each of the following substances on one occasion: 20 mg of idazoxan racemate (polymorph of form I); 10 mg of the R(−) enantiomer; 10 mg of the S(+) enantiomer.

[3] = Solubility in various solvents
[4] = ICH criteria

Structure (SMILES) | AUC0-∞ of R(−) idazoxan [2] [ng·h/mL] | AUC0-∞ of S(+) idazoxan [2] [ng·h/mL] | CLtot/F of S(+) idazoxan [2] [L/h] | Cmax of R(−) idazoxan [2] [ng/mL] | Cmax of S(+) idazoxan [2] [ng/mL] | Tmax of R(−) idazoxan [2] [h] | Tmax of S(+) idazoxan [2] [h] | t1/2 of R(−) idazoxan [2] [h] | t1/2 of S(+) idazoxan [2] [h] | CLtot/F of R(−) idazoxan [2] [L/h] | other results
c1ccc2c(c1)OC[C@H](C1=NCCN1)O2 [S(+)Idazoxan] | 11 ± 6 | 27 ± 13 | 397 ± 205 | 1.3 ± 0.7 | 7.2 ± 5.1 | 3.7 ± 0.5 | 2.1 ± 0.8 | 3.7 ± 0.4 | 7.8 ± 0.5 | – | binding affinity relative to the R(−) form (α2-adrenoreceptors): ten times greater; effectiveness in the antagonism of the hypothermia relative to the R(−) form [1]: 15 times; apparent clearance relative to the R(−) enantiomer ([2]; human, in vivo): approximately 1.5 times; distribution relative to the R(−) enantiomer ([2]; human, in vivo): approximately 1.5 times; t1/2 for conversion of S(+) to R(−) ([2]; in vivo): 4 h
c1ccc2c(c1)OC[C@@H](C1=NCCN1)O2 [R(−) Idazoxan] | 43 ± 19 | 14 ± 8 | – | 10.2 ± 3.9 | 1.6 ± 1.0 | 2.5 ± 0.5 | 4.0 ± 0 | 3.1 ± 0.6 | 4.1 ± 0.5 | 230 ± 92 | –
c1ccc2c(c1)OCC(C1=NCCN1)O2 (stereo not drawn) [Idazoxan hydrochloride, 2-(2-imidazolinyl)-1,4-benzodioxane hydrochloride] | – | – | – | – | – | – | – | – | – | – | solubility in ethanol ([3]; powder): soluble to fairly soluble; solubility in methanol ([3]; powder): readily soluble; solubility in water ([3]; powder): readily soluble
Cl.c1ccc2c(c1)OCC(C1=NCCN1)O2 (stereo not drawn) [Form I] | 58 ± 23 | 44 ± 21 | 245 ± 136 | 11.9 ± 4.6 | 8.3 ± 3.6 | 2.1 ± 0.7 | 2.1 ± 0.7 | 3.3 ± 0.4 | 3.3 ± 0.4 | 170 ± 76 | photostability [4]: no decomposition; Long-term stability (25° C./60% RH, listed as 500): 24 months; Long-term stability (25° C./60% RH, listed as 501): 24 months; Long-term stability (25° C./60% RH, listed as 503): 9 months; Long-term stability (25° C./60% RH, listed as 504): 9 months; Long-term stability (25° C./60% RH, listed as OP2): 24 months; Long-term stability (30° C./70% RH, listed as 500): 24 months; Long-term stability (30° C./70% RH, listed as 501): 24 months; Long-term stability (30° C./70% RH, listed as 503): 6 months; Long-term stability (30° C./70% RH, listed as 504): 6 months; Long-term stability (30° C./70% RH, listed as OP2): 24 months; Long-term stability (40° C./75% RH, listed as 500): 6 months; Long-term stability (40° C./75% RH, listed as 501): 6 months; Long-term stability (40° C./75% RH, listed as 503): 6 months; Long-term stability (40° C./75% RH, listed as 504): 6 months; Long-term stability (40° C./75% RH, listed as OP2): 9 months; solubility in water ([3]; batches of the form I): Freely soluble; solubility in ethanol ([3]; batches of the form I, listed as 503): Soluble

— patent US8476307B2, “Pharmaceutical composition based on idazoxan, salts, hydrates or polymorphs thereof” (Pierre Fabre Medicament, priority 2003, dated 2013)
